From US6019970A, “Treatment of iodine deficiency diseases” (priority 1997, dated 2000)
“Also recorded” adds a separate entry of the source. Where two headings read alike, the source gives them in different places.

How the values were obtained:
[1] = test system: fibrocystic disease; conditions: human, in vivo; cited from earlier work
[2] = test system: breast tissue from a female rat on an iodine deficient diet; assay: Carcinogen added to iodine deficient rat model (FIG. 6); format: in vivo; conditions: iodine deficient diet (FIG. 6)
Description: This finding is supportive of the inventors' contention that fibrocystic disease enhances the risk of breast cancer causing sensitization of the breast tissue to various stimuli, including carcinogens. This sensitization process may explain the increased incidence of breast cancer in women in areas of deficient iodine intake, reported by Moosa et al. in "Thyroid Status and Breast Cancer", Royal College of Surgeons, England, 53, 1975.

[3] = test system: endometriosis; assay: Example 6: Treatment of endometriosis with iodine; format: in vivo, human
Description: An effective dose of elemental iodinte (I2) to cause such a subsidence of nodularity is about 1 to 20 milligrams per day. A daily dosage of elemental iodine for the treatment of endometriosis of about 3 milligrams to about 6 milligrams is also useful. The daily dosage can be administered in an aqueous solution containing about 0.30 milligrams of elemental iodine per millilitre of solution.
Two patients, both with a diagnosis of endometriosis and both treated with birth control pills previously with little result, were treated with diatomic iodine for 10 and 18 months, respectively.

[4] = test system: breast estrogen receptor; assay: Breast estrogen receptor activity and iodine; set-up: species or system rat
Description: The biochemical pathway seems to be an intracellular attraction by iodine for estrogen receptors. […] Thus, cell metabolism is altered when there is "inadequate" iodine present.
A characteristic of breast cancer is the change in response to estrogen and estrogen receptor variability.

[5] = test system: DMBA-induced mammary gland neoplasia; assay: Example 4: Iodine treatment of induced breast tumors in rats; format: in vivo, rat
Description: DMBA, a carcinogen, causes mammary gland neoplasia in rats. If these tumors contain breast peroxidase, tney respond to iodine and estrogen treatment. However, as the tumors become less responsive to iodine (hormone independent), breast peroxidase is found to be lacking.

[6] = test system: breast cancer; assay: Example 5: Incidence of breast cancer in women treated with elemental iodine; format: in vivo, human (women); conditions: comparison with published series
Description: The incidence of breast cancer in women treated with elemental iodine was compared with other published results, namely the results as published by the Ontario Cancer Research, and results published by Spratt.

[7] = test system: DMBA-induced mammary tumors; assay: Dimethylbenzanthracene studies: mean tumor volume in DMBA treated rats; format: in vivo, Sprague-Dawley virgin female rats; conditions: for Mean Tumor Volume, Exp. / Mean Tumor Volume, Week 10 / Mean Tumor Volume, Week 12 / Mean Tumor Volume, Week 14 / Mean Tumor Volume, Week 16 / Mean Tumor Volume, Week 18 / Mean Tumor Volume, Week 20 / Mean Tumor Volume, Week 22: DMBA treated rats, in mm³ (unit assumed)
Procedure: After adequate orientation of 48 hours, 80 Sprague-Dawley virgin female rats (A.A.I., PA) of 100-124 grams and approximately 37 days old, were divided randomly into eight groups each containing 10 rats. The animals were identified according to their phase, group, and rat numbers. The eight groups were labelled as Groups, IA1, IA2, IB1, IB2, IIA1, IIA2, IIB1, and IIB2. Each rat was weighed and marked for identification. Ear identification were as follows:
Group I was initially fed a normal diet and provided with double distilled drinking water (Ionics and IWT). Group II was initially fed a Remington iodine-deficient diet (Teklad, WI) during which they received double distilled drinking water.
At the end of fourteen days, and at 50-56 days old, groups I and II were divided into groups A and B. Groups IA and IIA were treated with 15 mg 7,12 Dimethylbenzanthracene (Eastman Kodak, NY) dissolved in 1 ml sesame oil by gavage. Groups IB and IIB were given a sham feeding of 1 ml of sesame oil at this time also. Only 10 rats a day were given this treatment. For the first twelve hours after treatment, the rats were housed in the fume hood and then taken to the Animal House where they were placed in the same room as groups IB and IIB. The rats in groups IA and IIA continued to be fed a normal diet and iodine-deficient diet, respectively. Groups IB and IIB also continued to receive their respective diets.
The following phases received iodine replacement therapy at these times:
Phase 1--at time of initial feeding of Remington diet
Phase 2--at time of DMBA pulse
Phase 3--at 10 days after DMBA treatment
Groups IA1, IB1, IIA1, and IIB1 received 2.67 ml/1000 ml dilution of a 0.3 mg/ml "mother" iodine concentrate for the rest of the experiment. The technique for making the iodine solution was as follows:
4) A second container was used to measure 2.67 ml of concentrate to 1000 ml DD H2 O. This dilution was then used as drinking water for the animals.
This daily dosage corresponds to the rats receiving 0.07-0.09 mg per kilogram body weight. The other groups continued to receive double distilled drinking water. Thus, the groups were arranged in the following order:
Palpations of the breasts were performed twice a week for the first 30 days after pulse DMBA was administered. The masses, if any, were drawn, measured by caliper, described as to consistency and freedom of motion, and all observations were recorded. After 30 days, the above observations were taken (including framing of tumor if larger than 5 mm) every 2 days and recorded.
Group 1, which was initially fed a normal diet, and Group 2 which was initially fed a Remington iodine deficient diet. Within the two groups are four subgroups, phases 1, 2 and 3, and a control. Phase 1 received iodine replacement therapy at the time of the initial feeding of either the Remington diet or the normal diet. Phase 2 received iodine replacement therapy at the time of DMBA treatment. Phase 3 received iodine replacement therapy 10 days after DMBA treatment.
*Volumes were calculated using the formula 4/3 ((L + W) .div. 2)
All measurements were recorded in centimeters designating the greatest

[8] = test system: dysplastic mastodynia; conditions: women with dysplastic mastodynia; cited from earlier work
[9] = test system: breast tissue from a female rat on an iodine deficient diet; assay: Iodine replacement therapy in iodine deficient rats, morphology of breast tissue; format: in vivo
Description: Studies on rats have included iodine replacement therapy in animals made iodine deficient by a Remington iodine-free diet.
The first iodine product used in the reversal experiment was sodium iodide.
FIG. 1 is a photomicrograph of the breast tissue of a human.
Biological Trace Element Research, Volume 5, 1983, 399-412. The material disclosed in these articles is incorporated herein by reference.
This deficiency can be obtained either through the use of an iodine deficient diet and/or through perchlorate treatment.

[10] = test system: breast tissue from a female rat on an iodine deficient diet; conditions: Remington iodine-free diet; iodide salts in food, normal and excessive levels; cited from earlier work
[11] = Group I, Normal Diet, Iodine Phase I
[12] = Group I, Normal Diet, Iodine Phase II
[13] = Group I, Normal Diet, Iodine Phase III
[14] = Group II, ID (iodine-deficient) Diet, Iodine Phase I
[15] = Group II, ID (iodine-deficient) Diet, Iodine Phase II
[16] = Group II, ID (iodine-deficient) Diet, Iodine Phase III

C#C[C@]1(O)CC[C@H]2[C@@H]3CCC4=Cc5oncc5C[C@]4(C)[C@H]3CC[C@@]21C [danazol]
side effects in treatment of mammary dysplasia [1]: massive side effects

Cc1c2ccccc2c(C)c2c1ccc1ccccc12 [dimethyl benzanthracene, 7,12 Dimethylbenzanthracene]
progression of fibrocystic dysplasia [2]: progression from the benign state of fibrocystic dysplasia to overt malignancy

II [elemental iodine, diatomic iodine]
nodularity of pelvic peritoneum ([3]; about 1 to 20 milligrams per day): subsidence of the nodularity of the patient's pelvic peritoneum
overall response to iodine treatment, series of patients ([3]; no other medication during trial therapy): This series of patients has responded
effect of stopping medication ([3]; third patient): asymptomatic for two cycles, and then their pain returned
pelvic pain and nodularity on treatment ([3]; third patient): within two cycles, with complete relief of pelvic pain and improvement in the pelvic nodularity on rectal examination
cyclic lower abdominal pain ([3]; three patients treated for fibrocystic breast dysplasia): coincident dramatic decrease in their cyclic lower abdominal pain
effect of restarting medication ([3]; two patients): The subjective symptoms and physical findings again improved within one cycle
effect of stopping medication ([3]; two patients): within one cycle, they had severe pain again, with increasing nodularity of the pelvic peritoneum on rectal examination
pain on treatment ([3]; two patients, 10 and 18 months): complete amelioration of their pain within one cycle of starting the medication
breast estrogen receptor activities after iodine replacement ([4]; iodine deficiency): disappears upon iodine replacement
role in estrogen receptor function ([4]; rats): necessary for normal estrogen receptor function in rats
tumor response ([5]; about 0.5 mg per 100 gm body weight, orally or intraperitoneally, preliminary): more response to both diatomic iodine and estrogen
incidence of breast cancer versus women not so treated [6]: less than the incidence of breast cancer in women who had not been so treated
Mean Tumor Volume, Exp. [7, 11]: 320.524
Mean Tumor Volume, Week 10 [7, 11]: 15.191
Mean Tumor Volume, Week 12 [7, 11]: 53.565
Mean Tumor Volume, Week 14 [7, 11]: 67.739
Mean Tumor Volume, Week 16 [7, 11]: 97.979
Mean Tumor Volume, Week 18 [7, 11]: 136.405
Mean Tumor Volume, Week 20 [7, 11]: 155.904
Mean Tumor Volume, Week 22 [7, 11]: 214.962
Mean Tumor Volume, Exp. [7, 12]: 534.001
Mean Tumor Volume, Week 10 [7, 12]: 7.603
Mean Tumor Volume, Week 12 [7, 12]: 57.853
Mean Tumor Volume, Week 14 [7, 12]: 106.887
Mean Tumor Volume, Week 16 [7, 12]: 140.751
Mean Tumor Volume, Week 18 [7, 12]: 216.033
Mean Tumor Volume, Week 20 [7, 12]: 247.025
Mean Tumor Volume, Week 22 [7, 12]: 320.468
Mean Tumor Volume, Exp. [7, 13]: 392.61
Mean Tumor Volume, Week 10 [7, 13]: 6.686
Mean Tumor Volume, Week 12 [7, 13]: 24.079
Mean Tumor Volume, Week 14 [7, 13]: 75.421
Mean Tumor Volume, Week 16 [7, 13]: 90.319
Mean Tumor Volume, Week 18 [7, 13]: 127.529
Mean Tumor Volume, Week 20 [7, 13]: 184.717
Mean Tumor Volume, Week 22 [7, 13]: 319.229
Mean Tumor Volume, Exp. [7, 14]: 337.516
Mean Tumor Volume, Week 10 [7, 14]: 4.048
Mean Tumor Volume, Week 12 [7, 14]: 23.367
Mean Tumor Volume, Week 14 [7, 14]: 65.244
Mean Tumor Volume, Week 16 [7, 14]: 119.156
Mean Tumor Volume, Week 18 [7, 14]: 155.189
Mean Tumor Volume, Week 20 [7, 14]: 174.49
Mean Tumor Volume, Week 22 [7, 14]: 238.883
Mean Tumor Volume, Exp. [7, 15]: 613.044
Mean Tumor Volume, Week 10 [7, 15]: 0.216
Mean Tumor Volume, Week 12 [7, 15]: 54.934
Mean Tumor Volume, Week 14 [7, 15]: 111.962
Mean Tumor Volume, Week 16 [7, 15]: 168.475
Mean Tumor Volume, Week 18 [7, 15]: 269.008
Mean Tumor Volume, Week 20 [7, 15]: 401.774
Mean Tumor Volume, Week 22 [7, 15]: 519.122
Mean Tumor Volume, Exp. [7, 16]: 500.435
Mean Tumor Volume, Week 10 [7, 16]: 5.816
Mean Tumor Volume, Week 12 [7, 16]: 36.68
Mean Tumor Volume, Week 14 [7, 16]: 81.81
Mean Tumor Volume, Week 16 [7, 16]: 177.888
Mean Tumor Volume, Week 18 [7, 16]: 203.824
Mean Tumor Volume, Week 20 [7, 16]: 356.807
Mean Tumor Volume, Week 22 [7, 16]: 393.328
mean tumor volume, in words ([7]; pretreatment before DMBA, versus nontreated controls): reduction of mean tumor volume as compared to the nontreated controls; also recorded: reduced the mean tumor volume in the DMBA treated rats

[O-][Cl+3]([O-])([O-])O [perchlorate, reference compound]
effect on tumorigenesis and iodide therapy ([5]; peroxidase-blocking agent): increases the tumorigenesis and the effectiveness of iodide therapy

[I-].[K+] [potassium iodide, reference compound]
improvement rate [8]: 71%
reversal of pathological changes / tissue morphology of rat breast after iodine replacement [9]: only minimal success

[I-].[Na+] [sodium iodide, reference compound]
reversal of pathological changes / tissue morphology of rat breast after iodine replacement [9]: reversal of the pathological changes to a degree with the partial subsidence of cyst formation, epithelial hyperplasia and fibrosis. The interacinar fibrosis remained
reversal of pathological changes / tissue morphology of rat breast after iodine replacement ([9]; listed as sodium iodide (NaI)): only minimal success
reversal of pathological changes / tissue morphology of rat breast after iodine replacement ([9]; listed as sodium iodine): The epithelial hyperplasia regressed and the cystic spaces disappeared, but the fibrous tissue remained
breast dysplasia after iodine replacement [10]: the breast dysplasia appeared to abate with a partial subsidence of epithelial hyperplasia and a loss of cystic spaces but with a continuation of the fibrosis of the syndrome
